# Measured values from PMC8226574, “Action of Carvacrol on Parascaris sp. and Antagonistic Effect on Nicotinic Acetylcholine Receptors” (Pharmaceuticals, 2021).
# “Also recorded” adds a separate entry of the source. Like-named read-outs stand apart in the source and are kept apart here.
# Experiments:
# [1] = molecular target: Parascaris sp. ACR-26/27 M-AChR (Parascaris equorum, UniProt A0A0U2ES47+A0A0U2ES58); experiment: Two-electrode voltage-clamp on Parascaris sp. ACR-26/27 M-AChR expressed in Xenopus laevis oocytes; assay type: cell-based
# Parascaris sp. ACR-26/27 M-AChR, sequence (A0A0U2ES58 entry or part of it): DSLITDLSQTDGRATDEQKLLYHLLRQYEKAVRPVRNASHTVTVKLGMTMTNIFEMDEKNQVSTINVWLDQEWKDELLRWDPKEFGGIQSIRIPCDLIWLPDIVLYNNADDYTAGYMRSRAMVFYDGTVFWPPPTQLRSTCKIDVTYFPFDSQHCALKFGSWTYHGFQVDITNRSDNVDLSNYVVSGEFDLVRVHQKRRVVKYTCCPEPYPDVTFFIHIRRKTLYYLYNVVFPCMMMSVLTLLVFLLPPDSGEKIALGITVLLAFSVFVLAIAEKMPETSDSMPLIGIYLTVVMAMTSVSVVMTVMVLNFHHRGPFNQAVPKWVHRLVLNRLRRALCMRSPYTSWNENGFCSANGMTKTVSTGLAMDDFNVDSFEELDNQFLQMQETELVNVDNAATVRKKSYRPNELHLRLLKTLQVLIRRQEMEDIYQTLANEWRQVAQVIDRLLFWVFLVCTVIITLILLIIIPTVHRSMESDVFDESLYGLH
# Parascaris sp. ACR-26/27 M-AChR, sequence (A0A0U2ES47 entry or part of it): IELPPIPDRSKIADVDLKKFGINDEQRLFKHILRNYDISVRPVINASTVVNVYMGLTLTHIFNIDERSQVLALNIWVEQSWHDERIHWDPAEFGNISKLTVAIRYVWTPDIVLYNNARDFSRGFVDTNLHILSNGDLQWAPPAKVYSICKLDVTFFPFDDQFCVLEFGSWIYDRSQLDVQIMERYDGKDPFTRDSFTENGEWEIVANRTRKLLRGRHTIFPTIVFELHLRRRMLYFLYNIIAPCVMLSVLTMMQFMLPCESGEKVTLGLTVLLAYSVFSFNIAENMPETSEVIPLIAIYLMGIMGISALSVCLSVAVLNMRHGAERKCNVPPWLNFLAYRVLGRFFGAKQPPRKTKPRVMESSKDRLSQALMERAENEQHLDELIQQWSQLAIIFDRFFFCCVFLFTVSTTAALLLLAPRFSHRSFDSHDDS
# Protocol: (§1) Parascaris sp. ACR-26/27 M-AChR as well as Parascaris sp. and A. suum ACR-16 N-AChRs were expressed in Xenopus laevis oocytes as previously described. Briefly, Xenopus laevis defolliculated oocytes were obtained from Ecocyte Bioscience (Germany). Oocytes were micro-injected with 36 nL of cRNA mixes containing 50 ng/µL of each cRNA encoding subunits of interest and three H. contortus ancillary factors (Hco-RIC-3.1, Hco-UNC-50 and Hco-UNC-74). After 3–4 days of incubation, the oocytes were assayed under voltage clamp at −60 mV, and electrophysiological recordings were performed as described previously. The carvacrol concentration-dependent inhibition of acetylcholine current response was assessed for Parascaris- and Asu-ACR-16 channels with the protocol described by Zheng et al..
# (§2) The results of the contraction assay are expressed as means ± S.E. in grams (g) of tension. […] GraphPad Prism® Software (San Diego, CA, USA) was used to estimate the constants EC50 and nH by non-linear regression for each preparation. We determined the mean contraction responses to each concentration of acetylcholine. Whole cell current electrophysiology responses were analyzed using the pCLAMP 10.4 package (Molecular Devices). […] One-way analysis of variance (ANOVA) was applied for the comparison of the differences between the EC50 value and the maximal effect (Rmax). Differences were considered significant when the p value was < 0.05. The statistical analysis was conducted using GraphPad Prism® software (San Diego, CA, USA), while all values are expressed as mean ± standard error (S.E.).
# [2] = test system: Parascaris sp. muscle flap; experiment: Parascaris sp. body muscle flap isometric contraction assay
# Protocol: For the contraction assay, adult female Parascaris sp. worms were collected weekly from the slaughterhouse at Vrčin, Belgrade, Serbia. Worms were maintained in Locke’s solution, composition (mM): NaCl 155, KCl 5, CaCl2 2, NaHCO3 1.5 and glucose 5, at a temperature of 32 °C. The Locke’s solution was changed twice daily, and each batch of worms was used within 2 days of collection. Parascaris muscle flaps for the contractions were prepared by dissecting the anterior part of the worm, 3–4 cm caudal to the head (Figure 1b). Each flap (always the same length of 1 cm) was monitored isometrically by attaching a force transducer in an experimental bath maintained at 37 °C, containing 20 mL Ascaris Perienteric Fluid Ringer/APF Ringer (mM: NaCl, 23; Na-acetate, 110; KCl, 24; CaCl2, 6; MgCl2, 5; glucose, 11; HEPES, 5; pH 7.6) and bubbled with room air. After dissection, the preparations were allowed to equilibrate for 15 min under an initial tension of 1.5 g. […] Responses for each concentration were expressed in grams of tension (g), produced by each individual flap preparation. The effect of carvacrol (300 μM) on the acetylcholine dose–response plots was determined. Contractions were monitored on a PC using a BioSmart interface and eLAB software (ElUnit, Belgrade, Serbia). The system allows real-time recording, display and analysis of experimental data. Sigmoid dose–response curves for each individual flap preparation at each concentration of the antagonist were described by the Hill equation.
# as §2
# [3] = molecular target: Parascaris sp. ACR-16 N-AChR (Parascaris equorum, UniProt A0A3S9VMQ8); experiment: Two-electrode voltage-clamp on Parascaris sp. ACR-16 N-AChR expressed in Xenopus oocytes; assay type: cell-based; conditions: for reduction of ACh maximal response amplitude: p < 0.05
# Parascaris sp. ACR-16 N-AChR, sequence (A0A3S9VMQ8 entry or part of it): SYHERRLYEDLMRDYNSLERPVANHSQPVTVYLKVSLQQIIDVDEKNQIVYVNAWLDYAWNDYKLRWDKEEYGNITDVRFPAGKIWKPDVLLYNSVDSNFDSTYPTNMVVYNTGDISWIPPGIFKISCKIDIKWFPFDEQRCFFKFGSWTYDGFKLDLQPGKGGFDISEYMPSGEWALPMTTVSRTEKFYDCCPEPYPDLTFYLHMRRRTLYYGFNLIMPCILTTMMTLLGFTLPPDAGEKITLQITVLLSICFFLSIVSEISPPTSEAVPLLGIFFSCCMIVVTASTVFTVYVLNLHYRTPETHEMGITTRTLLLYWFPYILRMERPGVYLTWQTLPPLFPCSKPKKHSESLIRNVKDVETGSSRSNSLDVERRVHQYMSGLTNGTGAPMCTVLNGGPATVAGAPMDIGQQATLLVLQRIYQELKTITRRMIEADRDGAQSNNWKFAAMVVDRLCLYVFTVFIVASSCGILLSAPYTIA
# Protocol: as §1, §2
# [4] = test system: A. suum innervated muscle strips; conditions: 300 µM of carvacrol; cited from earlier work
# [5] = molecular target: T1, A. suum ACR-16 N-AChR (Ascaris suum, UniProt F1KYJ9); experiment: cell-based
# T1 construct: expressed in transfected cells; host or cells: Xenopus laevis oocytes (cRNA micro-injection)
# T1 sequence (F1KYJ9 1-504): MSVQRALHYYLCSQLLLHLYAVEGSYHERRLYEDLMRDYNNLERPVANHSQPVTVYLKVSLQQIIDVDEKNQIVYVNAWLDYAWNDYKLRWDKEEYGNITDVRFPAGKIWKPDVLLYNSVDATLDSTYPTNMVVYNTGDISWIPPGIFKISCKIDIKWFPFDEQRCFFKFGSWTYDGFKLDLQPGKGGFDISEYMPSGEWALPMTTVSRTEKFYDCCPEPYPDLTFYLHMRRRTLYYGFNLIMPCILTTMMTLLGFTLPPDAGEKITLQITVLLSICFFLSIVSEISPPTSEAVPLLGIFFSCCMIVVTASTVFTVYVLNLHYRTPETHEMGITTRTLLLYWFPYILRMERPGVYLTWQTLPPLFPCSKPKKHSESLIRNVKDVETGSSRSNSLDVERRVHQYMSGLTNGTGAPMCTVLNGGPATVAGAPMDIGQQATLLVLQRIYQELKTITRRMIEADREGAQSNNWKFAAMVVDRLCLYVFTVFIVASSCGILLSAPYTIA
# Protocol: as §1, §2
compound,measurement,setting,value
"CC(=O)OCC[N+](C)(C)C [ACh, Acetylcholine chloride]",EC50,"[1]; ACh EC50, absence of carvacrol, normalized to 100 µM ACh, n = 6",25 µM
same,EC50,"[1]; ACh EC50, continued perfusion of 100 µM carvacrol, n = 5",12.2 µM
same,EC50,"[1]; ACh EC50, continued perfusion of 300 µM carvacrol, n = 6",6.6 µM
same,EC50,"[1]; ACh log EC50, absence of carvacrol, log of EC50 in µM, n = 6",25 µM
same,EC50,"[1]; ACh log EC50, continued perfusion of 100 µM carvacrol, n = 5",12.2 µM
same,EC50,"[1]; ACh log EC50, continued perfusion of 300 µM carvacrol, n = 6",6.56 µM
same,Hill coefficient of ACh concentration-response,[1]; absence of carvacrol,1.4 ± 0.1
same,Hill coefficient of ACh concentration-response,[1]; presence of 100 µM carvacrol,1.7 ± 0.4
same,Hill coefficient of ACh concentration-response,[1]; presence of 300 µM carvacrol,1.5 ± 0.3
same,"maximal effect (Rmax), contraction",[2]; obtained with 100 µM ACh,1.19 ± 0.051 g
same,EC50,"[2]; read-out: EC50 of ACh, muscle flap contraction, control, no carvacrol, n = 5",6.08 µM
same,EC50,"[2]; read-out: log EC50 of ACh, muscle flap contraction (converted)",6.03 µM
same,Hill coefficient of ACh concentration-response,[3]; 100 µM carvacrol,2.0 ± 0.3
same,Hill coefficient of ACh concentration-response,[3]; 300 µM carvacrol,2.1 ± 0.4
same,EC50,"[3]; ACh EC50, presence of 100 µM carvacrol, n = 6",5.9 µM
same,EC50,"[3]; ACh EC50, presence of 300 µM carvacrol, n = 10",8.2 µM
same,EC50,"[3]; ACh EC50, without carvacrol, n = 6",6.5 µM
same,EC50,"[3]; ACh log EC50, presence of 100 µM carvacrol, n = 6",5.92 µM
same,EC50,"[3]; ACh log EC50, presence of 300 µM carvacrol, n = 10",8.18 µM
same,Hill coefficient of ACh concentration-response,[3]; without carvacrol,2.0 ± 0.2
same,ACh log EC50,"[3]; without carvacrol, log of EC50 in µM, n = 6",0.811 ± 0.028
Cc1ccc(C(C)C)cc1O [carvacrol],mode of action,[1],non-competitive antagonist
same,agonist action,[1]; carvacrol perfused alone,no agonist action
same,effect on efficacy of ACh activation (Imax),"[1]; perfusion of 100 and 300 µM carvacrol, p < 0.0001",significantly reduced
same,IC50,"[1]; read-out: IC50, inhibition of ACh-elicited current",169.3 ± 1 µM
same,inhibition of the ACh contractile effect,[4],≤ 49%
same,IC50,[5],36.4 ± 1.3 µM
same,mode of action,[5],non-competitive antagonist
same,higher affinity for the A. suum N-AChR over the Parascaris sp. N-AChR,[5]; from concentration-inhibition data,approximately 5 fold
same,inhibitory effect after removal of carvacrol from experimental baths (washing),[2]; 300 µM carvacrol,remained even after removal
same,effect on contractions induced by ACh,"[2]; 300 µM carvacrol, ACh 1 to 100 µM",completely abolished; also recorded: fully and irreversibly abolished; also recorded: full inhibition
same,IC50,[3],177.8 ± 1.1 µM
same,mode of action,[3],non-competitive antagonist
same,agonist effect,[3]; 300 µM carvacrol,no agonist effect
same,reduction of ACh maximal response amplitude,[3]; presence of 100 µM carvacrol,2 fold
same,reduction of ACh maximal response amplitude,[3]; presence of 300 µM carvacrol,3 fold
